The results in this text go back to patent publication US10703764B2, “Benzopiperazine compositions as BET bromodomain inhibitors” (FORMA Therapeutics, Inc., priority 2013, dated 2020).

One test deals with MV4-11 cells. The test is described as follows: Oncology cell growth assay (3-day proliferation, CellTiter-Glo). Type of test: cell-based. The note with it: Homo sapiens, MV4-11, 72 h, AML cell line MV4-11, 72 hours, compounds grouped by IC50 range, read-out: MV4-11 IC50 (inhibition of proliferation, gIC50). In outline: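 72 h, 37° C, 5% CO2; MV4-11, 3000 cells/well, RPMI 1640 + 10% FBS. Compound final 10, 3.3, 1.1, 0.37, 0.12, 0.041, 0.013, 0.0045 μM. Readout CellTiter-Glo luminescence; gIC50 by 4-parameter logistic fit, normalised to DMSO and no-cell background.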

For the next test, the target named is T1, BRD4 BD2 (Homo sapiens, UniProt O60885).
T1 construct: made in house
The test is described as follows: AlphaScreen binding assay, BRD4 Bromodomain 2. In outline: (§1)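 Compound dilution series were mixed with His-tagged BRD4 bromodomain and biotinylated tetra-acetylated H4 (1-21) peptide at pH 7.3 (BD1 and peptide at 50 nM, BD2 and peptide at 100 nM). Donor and acceptor beads were then added, and plates were equilibrated at least 1 h before reading. IC50 values were fitted with a four-parameter logistic model.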
For orientation: Alpha assays give light when donor and acceptor beads are brought close together.

The target in another test is T2, BRD4 BD1 (Homo sapiens, UniProt O60885).
T2 construct: made in house
The test is described as follows: AlphaScreen binding assay, BRD4 Bromodomain 1. The essentials:
as §1

For `CC(=O)N1c2ccc(-c3ccc4nccn4c3)cc2N(C(=O)c2ccco2)C[C@@H]1C` [Example I-382], the IC50 in the test with MV4-11 cells was 100 to 500 nM; at BRD4 BD2, over 500 nM; at BRD4 BD1, 1000 to 10000 nM.
Regarding `CC(=O)N1c2ccc(-c3cnn(CC4CC4(F)F)c3)cc2N(C(=O)OC(C)C)C[C@@H]1C` (stereo partly drawn) [Example I-678], the figures for the IC50 in the test with MV4-11 cells, on BRD4 BD2 and at BRD4 BD1 were 100 to 500 nM, 50 to 500 nM and 100 to 1000 nM, respectively.
The corresponding values for `CNC(=O)CN(C)C(=O)c1ccc(-c2ccc3c(c2)N(C(=O)OC(C)C)C[C@H](C)N3C(=O)C2CC2)cc1` [Example I-562] are 100 to 500 nM, 50 to 500 nM and 100 to 1000 nM.
The corresponding values for `CC(=O)N1c2ccc(-c3ccc(C(=O)N(C)CCN(C)C)cc3)cc2N(C(=O)OC(C)C)C[C@@H]1C` [Example I-539] are 100 to 500 nM, 50 to 500 nM and 100 to 1000 nM.
For `CC(=O)N1c2ccc(-c3cc(Cl)cc(S(C)(=O)=O)c3)cc2N(C(=O)OC2CCOCC2)C[C@@H]1C` [Example I-1248] the same measures were 100 to 500 nM, over 500 nM and 100 to 1000 nM.
`CCN(CC)C(=O)c1ccc(-c2ccc3c(c2)N(C(=O)OC(C)C)C[C@H](C)N3C(C)=O)cc1` [Example I-536]: the IC50 is 100 to 500 nM in the test with MV4-11 cells, under 50 nM on BRD4 BD2 and 100 to 1000 nM at BRD4 BD1.
The corresponding values for `CCOC(=O)N1C[C@H](C)N(C(C)=O)c2ccc(-c3cccc(S(=O)(=O)C4CC4)c3)cc21` [Example I-1088] are over 500 nM, 50 to 500 nM and 1000 to 10000 nM.
Take `CC(=O)N1c2ccc(-c3cnn(Cc4c[nH]cn4)c3)cc2N(C(=O)OC(C)C)CC1C` (stereo not drawn) [Example I-601]: the IC50 was 100 to 500 nM in the test with MV4-11 cells, under 50 nM at BRD4 BD2 and 100 to 1000 nM at BRD4 BD1.
Regarding `CCS(=O)(=O)Nc1cccc(-c2ccc3c(c2)N(C(=O)OC2CCCCC2)C[C@H](C)N3C(C)=O)c1` [Example I-1227], the IC50 with MV4-11 cells fell in the range of 100 to 500 nM; at BRD4 BD2, 50 to 500 nM; at BRD4 BD1, 100 to 1000 nM.
For `CC(=O)N1c2ccc(-c3cnn(CCCO)c3)cc2N(C(=O)C2CC2)C[C@@H]1C` [Example I-673] the same measures were 100 to 500 nM, 50 to 500 nM and 100 to 1000 nM.
Turning to `CC(=O)N1c2ccc(-c3cnn(Cc4c(C)noc4C)c3)cc2N(C(=O)OC(C)C)C[C@@H]1C` [Example I-602], the IC50 in the test on MV4-11 cells is 100 to 500 nM; on BRD4 BD2, under 50 nM; at BRD4 BD1, 100 to 1000 nM.
For `CCOC(=O)N1C[C@H](C)N(C(=O)C2CC2)c2ccc(-c3cnn(C4CC4)c3)cc21` [Example I-379] the same measures were 100 to 500 nM, 50 to 500 nM and 100 to 1000 nM.
The corresponding values for `CC(C)OC(=O)N1C[C@H](C)N(C(=O)C2CC2)c2ccc(-c3cnn(CC4CCS(=O)(=O)CC4)c3)cc21` [Example I-609] are over 500 nM, 50 to 500 nM and 100 to 1000 nM.
Regarding `CC(=O)N1c2cc([N+](=O)[O-])c(-c3cnn(C4CC4)c3)cc2N(C(=O)OC(C)C)C[C@@H]1C` [Example I-195, isopropyl (S)-4-acetyl-7-(1-cyclopropyl-1H-pyrazol-4-yl)-3-methyl-6-nitro-3,4-dihydroquinoxaline-1(2H)-carboxylate], the IC50 with MV4-11 cells is over 500 nM; at BRD4 BD2 it was over 500 nM; on BRD4 BD1, 100 to 1000 nM.
On to `CC(=O)N1c2ccc(-c3cccc(NS(C)(=O)=O)c3)cc2N(C(=O)OC2CCOCC2)C[C@@H]1C` [Example I-1222], for which the IC50 with MV4-11 cells is 100 to 500 nM; on BRD4 BD2 it was 50 to 500 nM; at BRD4 BD1, 100 to 1000 nM.
For `CC(=O)N1c2ccc(-c3ccc(S(=O)(=O)C(C)C)cc3)cc2N(C(=O)C2CCC2)C[C@@H]1C` [Example I-1063] the same measures were over 500 nM, 50 to 500 nM and 1000 to 10000 nM.
On to `CC(=O)N1c2ccc(-c3ccc(S(=O)(=O)N4CCC4)cc3)cc2N(C(=O)c2ccco2)C[C@@H]1C` [Example I-289], for which the figures for the IC50 with MV4-11 cells, at BRD4 BD2 and on BRD4 BD1 were 100 to 500 nM, under 50 nM and 100 to 1000 nM, respectively.
Turning to `CC(=O)N1c2ccc(-c3ccc(S(C)(=O)=O)cc3)cc2N(C(=O)Oc2ccc(F)cc2)C[C@@H]1C` [Example I-234], the IC50 in the test with MV4-11 cells is under 100 nM; at BRD4 BD2 it was under 50 nM; at BRD4 BD1 it was 100 to 1000 nM.
In the case of `COC(=O)Nc1ccc(-c2ccc3c(c2)N(C(=O)c2ccco2)C[C@H](C)N3C(C)=O)cc1` [Example I-414], the IC50 in the test on MV4-11 cells was 100 to 500 nM; at BRD4 BD2 it was under 50 nM; on BRD4 BD1 it was 1000 to 10000 nM.
For the compound `CC(=O)N1c2ccc(-c3cnn(CC4CC4(F)F)c3)cc2N(C(=O)C2CC2)C[C@@H]1C` (stereo partly drawn) [Example I-148, 1-((S)-4-(cyclopropanecarbonyl)-6-(1-((2,2-difluorocyclopropyl)methyl)-1H-pyrazol-4-yl)-2-methyl-3,4-dihydroquinoxalin-1(2H)-yl)ethanone], the IC50 lay within 100 to 500 nM in the test on MV4-11 cells, 50 to 500 nM at BRD4 BD2 and 100 to 1000 nM on BRD4 BD1.
As for `CC(=O)N1c2ccc(-c3ccc(N4CCOCC4)cc3)cc2N(C(=O)c2ccco2)C[C@@H]1C` [Example I-850], the IC50 is 100 to 500 nM in the test on MV4-11 cells, under 50 nM at BRD4 BD2 and 100 to 1000 nM on BRD4 BD1.
The corresponding values for `CCS(=O)(=O)c1cccc(-c2ccc3c(c2)N(C(=O)OC(C)C)C[C@H](C)N3C(C)=O)c1` [Example I-1093] are 100 to 500 nM, 50 to 500 nM and 100 to 1000 nM.
For `COC(=O)N1c2ccc(-c3ccc(C(=O)N4CCNCC4)cc3)cc2N(C(=O)OC(C)C)C[C@@H]1C` [Example I-559] the same measures were 100 to 500 nM, 50 to 500 nM and 100 to 1000 nM.
Turning to `CCS(=O)(=O)Nc1ccc(-c2ccc3c(c2)N(C(=O)OC2CCOCC2)C[C@H](C)N3C(C)=O)cc1` [Example I-1270], the IC50 with MV4-11 cells was 100 to 500 nM; at BRD4 BD2, 50 to 500 nM; at BRD4 BD1 it was 100 to 1000 nM.
The corresponding values for `CC(=O)N1c2ccc(-c3cnn(CCO)c3)cc2N(c2nn(C)c3ccc(F)cc23)C[C@@H]1C` [Example I-189, 1-[(2S)-4-(5-fluoro-1-methyl-1H-indazol-3-yl)-6-[1-(2-hydroxyethyl)-1H-pyrazol-4-yl]-2-methyl-1,2,3,4-tetrahydroquinoxalin-1-yl]ethan-1-one] are 100 to 500 nM, 50 to 500 nM and 1000 to 10000 nM.
For `CC(=O)N1c2ccc(-c3ccc(S(N)(=O)=O)cc3)cc2N(C(=O)OC(C)C)C[C@@H]1C` [Example I-1069] the same measures were 100 to 500 nM, 50 to 500 nM and 100 to 1000 nM.
For `CNS(=O)(=O)c1ccc(-c2ccc3c(c2)N(C(=O)OC2CCCCC2)C[C@H](C)N3C(C)=O)cc1` [Example I-1261] the same measures were 100 to 500 nM, 50 to 500 nM and 100 to 1000 nM.
Regarding `CC(=O)N1c2cc(F)c(-c3cnn(C4CC4)c3)cc2N(C(=O)OC(C)C)C[C@@H]1C` [Example I-207, Isopropyl (S)-4-acetyl-7-(1-cyclopropyl-1H-pyrazol-4-yl)-6-fluoro-3-methyl-3,4-dihydroquinoxaline-1(2H)-carboxylate], the IC50 was over 500 nM with MV4-11 cells, 50 to 500 nM at BRD4 BD2 and 100 to 1000 nM at BRD4 BD1.
For `COc1ccc(F)cc1OC(=O)N1C[C@H](C)N(C(C)=O)c2ccc(-c3cnn(C4CC4)c3)cc21` [Example I-1201] the same measures were 100 to 500 nM, under 50 nM and 100 to 1000 nM.
For `CC(=O)N1c2ccc(-c3ccc(C(=O)N4CCC[C@@H]4CN)cc3)cc2N(C(=O)OC(C)C)C[C@@H]1C` [Example I-592] the same measures were 100 to 500 nM, 50 to 500 nM and 100 to 1000 nM.
For `CC(=O)N1c2ccc(-c3cccc(S(C)(=O)=O)c3)cc2N(C(=O)OC2CCCCC2)C[C@@H]1C` [Example I-1225], the IC50 was 100 to 500 nM in the test with MV4-11 cells, 50 to 500 nM on BRD4 BD2 and 100 to 1000 nM at BRD4 BD1.
Regarding `CC(=O)N1c2ccc(-c3ccc(S(C)(=O)=O)cc3)cc2N(C(=O)Oc2cccc(C(F)(F)F)c2)C[C@@H]1C` [Example I-237], the IC50 with MV4-11 cells is 100 to 500 nM; at BRD4 BD2, under 50 nM; at BRD4 BD1 it was 1000 to 10000 nM.
For the compound `COc1cc(C)ccc1OC(=O)N1C[C@H](C)N(C(C)=O)c2ccc(-c3cnn(C4CC4)c3)cc21` [Example I-506], the IC50 in the test with MV4-11 cells is under 100 nM; at BRD4 BD2 it was 50 to 500 nM; at BRD4 BD1 it was 100 to 1000 nM.
On to `CC(=O)N1c2ccc(-c3ccc(C(=O)N[C@H]4C[C@H]5CC[C@@H](C4)N5)cc3)cc2N(C(=O)OC(C)C)C[C@@H]1C` [Example I-594], for which the results for the IC50 with MV4-11 cells, at BRD4 BD2 and at BRD4 BD1 were 100 to 500 nM, 50 to 500 nM and 100 to 1000 nM, respectively.
For `CC(=O)N1c2ccc(-c3cccc(S(=O)(=O)NCCO)c3)cc2N(C(=O)OC2CCOCC2)C[C@@H]1C` [Example I-1256], the figures for the IC50 in the test with MV4-11 cells, on BRD4 BD2 and on BRD4 BD1 were 100 to 500 nM, 50 to 500 nM and 100 to 1000 nM, respectively.
`CC(=O)N1c2ccc(-c3cnn(CC(=O)N4CCCCC4)c3)cc2N(C(=O)OC(C)C)C[C@@H]1C` [Example I-599]: the figures for the IC50 with MV4-11 cells, on BRD4 BD2 and on BRD4 BD1 were 100 to 500 nM, under 50 nM and 100 to 1000 nM, respectively.
